Read-outs that look alike come from different tables or passages of the source.
Tests used:
[1] = system: freshly resected human tumors; conditions: 25%-LATTE mixed with ICG, 24 hours at 37° C., 12 tumors
Description: The fluorescent intensity and diffusion area were calculated using similar parameters for all tissues. […] LATTE was able to ablate a variety of highly malignant human tumors.
Explanted human cancer tissues were collected following surgical resection and placed in RPMI medium for preservation. […] Near-infrared fluorescent imaging (NIRF) was performed at 5 minutes after injection. […] Tissues were transected to reveal the ablated zone were fixed in 10% buffered formalin, embedded in paraffin, then sectioned and subsequently stained with hematoxylin and eosin for microscopic evaluation.

cardiac muscle = conditions: 1 cc with ICG, 1 hour
Description: FIGS. 14A-14B. Effect of an ablation agent on pig heart tissue. FIG. 14A. In a living Yorkshire pig weighing 50-55 kg, a syringe connected to a 21 gauge 7 cm needle was guided through the skin into the myocardium using hand-held ultrasound guidance. […] FIG. 14B.
Pig heart tissue septum received 1 cc injection of LATTE mixture with ICG under ultrasound guidance. Cardiac muscle was removed after 1 hour for near-infrared imaging (NIRF) and histology was performed.

fat cells (adipocytes) = experiment: Explanted pig fat tissue incubated with LATTE; conditions: after 1 hour in LATTE solution
subcutaneous fat tissue = conditions: 25% LATTE mixture subcutaneous
Description: Additional experiments were performed on explanted fat tissue obtained from the groin area from pig in a petri dish submersed in saline (FIG. 10).

VX2 liver tumor = system: VX2 liver tumor
Description: To visualize normal liver parenchyma on CT imaging, rats received a bolus injection of 400 μL of the alkaline earth metal-based nanoparticle suspension, Exitron nano 12000 (Miltenyi Biotec, Auburn, CA) two hours prior to micro-CT scanning. Rats were anesthetized using inhalation of 2-3% isoflurane in 100% 02 at a constant flow rate of 2 L/minute and placed on a cassette equipped with a warming system and continuous gas exchange and integrated real-time motion detection camera. Fixed rat tissues were placed and immobilized using styrofoam beads inside a humidified plastic chamber. […] The 3D image stacks were reconstructed using NRecon software and InstaRecon CBR Server (version: 1.7.4.6, Bruker, Kontich, Belgium) following adjustment of random movements, beam-hardening correction, and ring artifact reduction and smoothing. 3D volume rendering was visualized using CTVox software (version: 3.3. 0 r1383, Bruker, Kontich, Belgium). The stacks were virtually rotated and axially oriented to yield transverse projections of select volume of interest (VOI) using Data Viewer software (Bruker, Kontich, Belgium).

[2] = rat, in vivo
Description: Next, in vivo experiments in immunocompetent rats bearing the highly malignant orthotropic N1S1 liver tumors were ablated using LATTE. Percutaneous injection of LATTE was performed and assessment also included CT imaging to mimic the clinical scenario. […] These tumors also received high-resolution in vivo micro-CT imaging following intravenous injection of Exitron contrast agent to allow accurate segmentation of the liver tumors (FIG. 1p-q). […] These tumors at two-weeks were also harvested and evaluated by histology.
All procedures were approved by the institutional animal care and use committee and performed according to institutional guidelines. […] N1S1 cells were maintained in suspension in a 75 cm^2 culture flasks at 37° C. in a 5% CO2 humidified chamber. […] To prepare the cells for inoculation, N1S1 cell aliquots were rinsed and suspended in plain IMDM (without antibiotics or serum) to yield 2×10^6 cells in 100 μL of fresh aliquots for each inoculation. The rat liver was surgically exposed through upper midline laparotomy under isoflurane anesthesia followed by subcapsular inoculation of N1S1 cells into the left liver lobe. Gentle compression with gauze for hemostasis was used to prevent cell reflux. The abdominal incision was closed using interrupted Vicryl sutures for abdominal muscle and subcuticular suture for the skin, followed by the application of Vetbond tissue adhesive (3M, St. Paul, MN) followed by recovery from anesthesia. Intratumoral injection of the ionic liquid mixture was performed in three groups of rats bearing 0.5 cm^3 N1S1 tumor lesions measured with ultrasound. […] All solutions contained 0.25 mg/mL indocyanine green (ICG, Sigma-Aldrich, St. Louis, MO) solubilized in normal saline. Following intratumoral injections, treated rats were allowed to survive for 2 weeks after treatment, and tumor volume was documented using ultrasound. N1S1 tumor progression and treatment response was assessed using percutaneous ultrasonography. Selected focal zone depth, gain, and tissue harmonic settings were optimized during the acquisition of the initial imaging at baseline, and the same parameters were applied during acquisition after intratumoral injection of LATTE mixture. Serial ultrasound examinations were performed on rat livers following N1S1 inoculation to confirm tumor formation and assess tumor volume. Rats were anesthetized using a gas mixture of 2-3% isoflurane in 100% oxygen via a nose cone. Rats were secured in a supine position on an electronically controlled warming platform to maintain the temperature at 37° C. during the imaging procedure. The abdominal area was shaved and prepped with depilatory cream (Nair, Church& Dwight Co. INC). Initially, abdominal sonography was performed to delineate tumor mass boundaries in grayscale (B-mode) using ACUSON 52000 system (Siemens Inc., Germany) and a multi-frequency linear transducer (9L4, 9.0 MHz). The transducer was positioned to obtain 2D scans via the subcostal window to document liver tumors and measure lesion diameter. […] Tumor volumes were calculated as following: V=(4/3)×π×(1/2) SI×(1/2)LM×1/2 AP. Color Doppler images were also acquired to detect the distribution of the tumor blood flow weekly.

pig blood = system: pig blood
Description: (§1) The effect of IL on coagulation and cell death in blood was evaluated in vitro. To evaluate the effect of cell death along the margins of the ablation zone, specifically on the effect of IL on inflammatory cells, blood treated with low concentrations of IL was used to simulate concentrations along the ablation margins. To analyze the effect of the ionic liquid on blood coagulation, RBC hemolysis, and immune cells, analyses including rheometry, hemolyses assay, complete blood counts were performed on blood smears following incubation of pig blood aliquots with various concentrations of IL.

pig blood cells = system: pig blood cells
Description: as §1

Description for pig liver: Ultrasound-guided injection of LATTE solution was performed in euthanized pigs or rabbits. […] Ultrasonography was used to visualize the left liver lobe parenchyma using a high-frequency transducer (A 9-MHz multi-frequency linear probe, ACUSON 52000, Siemens, Germany). The access site position was marked on the skin and a scalpel blade was used to create a small incision in the center of the marked line. The access needle was advanced through the skin incision in front of the transducer parallel its long axis until it reached the desired location then the LATTE mixture was slowly injected over one minute. At 10 minutes post-injection, the liver tissue was harvested and subjected to near-infrared fluorescent imaging (NIRF) (IVIS 200, PerkinElmer, Inc. Waltham, MA) followed by fixation and histologic evaluation.
Injection Images were acquired at 0 and 90 minutes after injection. Pig livers were scanned with a 3T MAGNETOM Skyra MRI (Siemens Healthcare, Erlangen, Germany) with an 18 channel anterior coil in combination with a 32 channel posterior spine coil. […] Scans were acquired at 0 and 90 minutes after injection. Segmentation and volume calculations were acquired using the Materialise 3-Matic and Mimics 3D image processing software (Materialise, Belgium).

In the case of choline-geranate [LATTE], the tumor tissue histology [1] is reported as “marked tissue destruction”, the “cardiac muscle histology at injected site” value (cardiac muscle) is reported as “marked ablation of the cardiac myofibers” and the “fat depletion from adipocytes” value (fat cells (adipocytes)) is reported as “fat was depleted”. For the same substance, the “adipocyte ablation in treated zone (histology)” value (subcutaneous fat tissue) was “complete ablation of the adipocytes”, the tumor histology (VX2 liver tumor; compared to saline injected tumors) was “extensive necrosis” and the “tumor perfusion (Doppler, laser speckle)” value (VX2 liver tumor; following injection) was “markedly diminished perfusion”. For the same substance, the ALP [2] was “*211 ± 29 U/L”, the ALT [2] was 57 ± 13 U/L and the BUN [2] was “**25 ± 2.4 mg/dL”. It also gave a CRE [2] of 0.3 ± 0.04 mg/dL, a CRP [2] of 459 ± 38 ng/mL and a GLU [2] of 268 ± 75 mg/dL. The “Total Protein” value [2] was 5.2 ± 0.3 g/dL, the “liver and renal function from serum samples” value [2] was “normal liver and renal function” and the “blood coagulation initiation lag time (tlag)” value (pig blood; 0.78% IL) was “slight increase in lag time”. For the same substance, the “decrease in storage modulus (G′) at 30 minutes” value (pig blood; 0.78% IL) was ~20%, the “blood coagulation initiation lag time (tlag)” value (pig blood; 1.56 wt % IL) was “significantly extended lag time” and the “drop in storage modulus (G′) at 30 minutes” value (pig blood; 1.56 wt % IL) was 95%. The “coagulation during 30 minutes testing period” value (pig blood; 3.12 wt % IL) was “failed to coagulate”, the “decrease in storage modulus (G′) at 30 minutes” value (pig blood; 3.12 wt % IL) was 100 wt % and the “red blood cells (RBC) total count” value (pig blood cells; 0.78, 1.56, 3.12 wt % IL) was “concentration dependent decrease”. For the same substance, the “white blood cells (WBC) total count” value (pig blood cells; 0.78, 1.56, 3.12 wt % IL) was “concentration dependent decrease”, the lymphocyte count (pig blood cells; 0.78, 1.56, 3.12 wt % IL, compared to control) was “no change in lymphocyte count” and the hemolysis test (pig blood cells; 0.78-25 wt % IL) was “significant increase in hemolysis”. For the same substance, the “hemolysis on stained blood smears” value (pig blood cells; 3.12 wt % IL) was “complete hemolysis”, the liver histology (pig liver; 2 mL of 25% LATTE mixed with ICG) was “total destruction of tissue architecture” and the ablation zone size (pig liver; transcutaneous injection in pigs) was “up to 4 cm”.
